These results are taken from ChEMBL document CHEMBL1147874, “Structure-activity based study of the Smac-binding pocket within the BIR3 domain of XIAP” (Bioorg Med Chem, 2007).

Calls of active or inactive are those of the source. No cut-off for these calls is given here.

The species entered for one test is Homo sapiens. Description: Cytotoxicity against […] cells assessed as reduction in cell viability at 30 to 500 uM after 72 hrs by MTT assay. Format: functional, cell-based.
The target in test [1] is E3 ubiquitin-protein ligase XIAP (Homo sapiens, UniProt P98170). Kind of test: Binding affinity to BIR3 domain of XIAP by competitive fluorescent binding assay.
Chain of E3 ubiquitin-protein ligase XIAP (P98170 whole entry, the tested form may be a part): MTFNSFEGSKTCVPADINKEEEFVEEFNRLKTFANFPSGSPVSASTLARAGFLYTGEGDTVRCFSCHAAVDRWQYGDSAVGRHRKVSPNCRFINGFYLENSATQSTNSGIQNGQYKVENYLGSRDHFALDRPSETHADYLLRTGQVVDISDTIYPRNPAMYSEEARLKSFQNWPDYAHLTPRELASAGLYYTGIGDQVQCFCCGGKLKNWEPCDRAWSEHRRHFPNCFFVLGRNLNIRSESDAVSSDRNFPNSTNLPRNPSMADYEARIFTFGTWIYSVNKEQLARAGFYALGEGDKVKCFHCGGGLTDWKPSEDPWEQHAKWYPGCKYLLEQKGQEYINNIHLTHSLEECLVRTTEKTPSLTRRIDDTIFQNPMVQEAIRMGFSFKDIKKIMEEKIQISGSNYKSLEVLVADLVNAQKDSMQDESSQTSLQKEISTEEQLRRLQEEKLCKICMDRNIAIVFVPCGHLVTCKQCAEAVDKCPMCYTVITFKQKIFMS

As to `CC[C@H](C)[C@H](NC(=O)[C@@H]1CCCN1C(=O)[C@@H](NC(=O)[C@H](C)N)C(C)C)C(=O)O`, the outcome in the test filed under Homo sapiens was inactive. On the same count and under the same terms, the entry for `C[C@H](N)c1nc(C(=O)N2CCC[C@H]2C(=O)N[C@@H](Cc2c[nH]c3ccccc23)C(=O)O)co1` is “Active”.

Turning to `CC[C@H](C)[C@H](NC(=O)[C@@H]1CCCN1C(=O)c1coc([C@H](C)N)n1)C(=O)O`, the Kd in test [1] came out at 300 µM. On the same count and under the same terms, under `C[C@H](N)c1nc(C(=O)N2CCC[C@H]2C(=O)N[C@@H](Cc2ccccc2)C(=O)O)co1` stands 11 µM.
